Experimental data from patent US20160250213A1, “FORMULATIONS OF AZAINDOLE COMPOUNDS” (priority 2013, published 2016).
Where “and” joins values, the source holds several entries; their conditions need not be identical. Equal entries are not always repeated. Where two headings read alike, the source gives them in different places. Marks after values point to notes of the source that are not given here.

How the values were obtained:
[1] = tested on: influenza A/PR/8/34 (5×10^3 TCID50); design: species or system mice; conditions: mouse, in vivo
[2] = tested on: Influenza A/Victoria/3/75 (H3N2) virus; type: in vivo, BALB/c mice
A/Denver/1/57 (H1N1) = assay: microbe, parasite or virus in culture; type: cell-based; conditions: Influenza A virus, MDCK, read-out: Cell Protection Assay EC50 ± SD
[3] = tested on: A/Chelyabinsk/1/2006 (H1N1); assay: microbe, parasite or virus in culture; type: cell-based; conditions: Influenza A virus, MDCK, read-out: Cell Protection Assay EC50 ± SD
A/Florida/3/2006 (H1N1) = assay: microbe, parasite or virus in culture; type: cell-based; conditions: Influenza A virus, MDCK, read-out: Cell Protection Assay EC50 ± SD
A/Georgia/17/2006 (H1N1) = assay: microbe, parasite or virus in culture; type: cell-based; conditions: Influenza A virus, MDCK, read-out: Cell Protection Assay EC50 ± SD
[4] = tested on: A/South Dakota/6/2007 (H1N1); assay: microbe, parasite or virus in culture; type: cell-based; conditions: Influenza A virus, MDCK, read-out: Cell Protection Assay EC50 ± SD
A/Aichi/2/68 (H3N2) = assay: microbe, parasite or virus in culture; type: cell-based; conditions: Influenza A virus, MDCK, read-out: Cell Protection Assay EC50 ± SD
[5] = tested on: A/Swine/Iowa/15/30 (H1N1); assay: microbe, parasite or virus in culture; type: cell-based; conditions: Influenza A virus, H1N1, MDCK, in Sus scrofa, read-out: Cell Protection Assay EC50 ± SD
A/Swine/1976/31 (H1N1) = assay: microbe, parasite or virus in culture; type: cell-based; conditions: Influenza A virus, H1N1, MDCK, in Sus scrofa, read-out: Cell Protection Assay EC50 ± SD
B/Lee/40 = assay: microbe, parasite or virus in culture; type: cell-based; conditions: Influenza B virus, MDCK, read-out: Cell Protection Assay EC50 ± SD
influenza A virus = type: in vivo, mice; conditions: mouse, in vivo
influenza A = tested on: influenza A; design: species or system mice; conditions: mouse, in vivo
influenza virus = tested on: influenza virus; design: species or system mice; conditions: mouse, in vivo
[6] = tested on: influenza A/Wisconsin/67/2005 (H3N2) challenge strain virus; type: in vivo, humans (healthy volunteers); conditions: for Viral Shedding by Tissue Culture, AUC, median: Days 1-7
[7] = tested on: influenza A/Wisconsin/67/2005 (H3N2) challenge strain virus; type: in vivo, humans (healthy volunteers); conditions: for Composite Clinical Symptom, AUC, median / Influenza like Symptom, AUC, median: Day 1 through Day 7
[8] = 1 mg/kg p.o. twice a day for 10 days starting 2 hours prior to virus exposure
[9] = 3 mg/kg p.o. twice a day for 10 days starting 2 hours prior to virus exposure
[10] = 10 mg/kg p.o. twice a day for 10 days starting 2 hours prior to virus exposure
[11] = 100 mg QD 5 days, FA set N = 12
[12] = 400 mg QD 5 days, FA set N = 12
[13] = 900 mg Day 1, 600 mg Days 2-5, FA set N = 14
[14] = 1200 mg Day 1, 600 mg Days 2-5, FA set N = 14
[15] = pooled Compound (1) dose groups, FA set N = 52
[16] = 900 mg Day 1, 600 mg Days 2-5, N = 14
[17] = 1200 mg Day 1, 600 mg Days 2-5, N = 14
[18] = pooled Compound (1) dose groups, N = 52

In the case of `O=C(O)[C@H]1C2CCC(CC2)C1Nc1nc(-c2c[nH]c3ncc(F)cc23)ncc1F` (stereo partly drawn) [Compound (1)], the “Survival Rate” value ([1]; 0.1 mg/kg) is reported as 12.5, the “Survival Rate” value ([1]; 0.3 mg/kg) is reported as 44.4 and the “Survival Rate” value ([1]; 1 mg/kg) is reported as 100. The “MDD ± SD (mean day of death of mice that died on or before day 21)” value [2, 8] was 9.8 ± 1.9, the “Mean Lung Parameters (Day 6): Score (hemorrhage, 0 to 4)” value (from here on “Mean Lung Parameters (Day 6): Score”) [2, 8] was 3.2 ± 0.3^e and the “Mean Lung Parameters (Day 6): Virus Titer” value [2, 8] was 7.3 ± 0.3 Log10 CCID50/g. The “Mean Lung Parameters (Day 6): Weight” value [2, 8] was 274 ± 49 mg, the Survivors/Total [2, 8] was 4/10 and the “Mean Lung Parameters (Day 6): Score” value [2, 9] was 3.3 ± 0.6^e. For the same molecule, the “Mean Lung Parameters (Day 6): Virus Titer” value [2, 9] was 7.2 ± 0.2 Log10 CCID50/g, the “Mean Lung Parameters (Day 6): Weight” value [2, 9] was 260 ± 25 mg and the “Mean Lung Parameters (Day 6): Score” value [2, 10] was 0.1 ± 0.2^d. For the same molecule, the “Mean Lung Parameters (Day 6): Virus Titer” value [2, 10] was 6.1 ± 0.5 Log10 CCID50/g, the “Mean Lung Parameters (Day 6): Weight” value [2, 10] was 164 ± 11 mg and the EC50 (A/Denver/1/57 (H1N1)) was 0.42 ± 0.19 nM. The EC50 [3] was 0.7 ± 0.49 nM, the EC50 (A/Florida/3/2006 (H1N1)) was 0.92 ± 1.5 nM and the EC50 (A/Georgia/17/2006 (H1N1)) was 0.13 ± 0.048 nM. For the same molecule, the EC50 [4] was 0.31 ± 0.25 nM, the EC50 (A/Aichi/2/68 (H3N2)) was 1.4 ± 1.1 nM and the EC50 [5] was 0.65 ± 0.082 nM. The EC50 (A/Swine/1976/31 (H1N1)) was 0.47 ± 0.11 nM, the EC50 (B/Lee/40) was greater than 10 nM and the “survival” value (influenza A virus) was 2/8. For the same molecule, the “Log10 Reduction vs. Vehicle” value (influenza A) was −1.08 Log10, the “Log10 Reduction vs. Vehicle” value (influenza A; 3 mg/kg) was −1.04 Log10 and the “Lung Viral Titer” value (influenza A; 3 mg/kg) was 5.24 *** Log10 TCID50. For the same molecule, the “Lung Viral Titer” value (influenza A; 10 mg/kg) was 5.20*** Log10 TCID50, the “Lung Viral Titer” value (influenza A; 30 mg/kg) was 3.95 Log10 TCID50 and 4.53*** Log10 TCID50 and the “half maximal reduction in lung titers” value (influenza virus) was 2-3 log. For the same molecule, the “Viral Shedding by Tissue Culture, Duration, median” value (from here on “Viral Shedding … Duration, median”) [6, 11] was 0.96 days, the “Viral Shedding by Tissue Culture, Peak, mean” value (“Viral Shedding … mean” below) [6, 11] was 2.09 log10 TCID50/mL and the “Viral Shedding by Tissue Culture, AUC, median” value (shortened to “Viral Shedding … AUC, median”) [6, 11] was 1.25 log10 TCID50 mL*Day. The “Viral Shedding … Duration, median” value [6, 12] was 1.60 days, the “Viral Shedding … mean” value [6, 12] was 1.73 log10 TCID50/mL and the “Viral Shedding … AUC, median” value [6, 12] was 0.70 log10 TCID50 mL*Day. The “Viral Shedding … Duration, median” value [6, 13] was 2.71 days, the “Viral Shedding … mean” value [6, 13] was 2.68 log10 TCID50/mL and the “Viral Shedding … AUC, median” value [6, 13] was 3.20 log10 TCID50 mL*Day. The “Viral Shedding … Duration, median” value [6, 14] was 0.00 days, the “Viral Shedding … mean” value [6, 14] was 1.00 log10 TCID50/mL and the “Viral Shedding … AUC, median” value [6, 14] was 0.35 log10 TCID50 mL*Day. The “Viral Shedding … Duration, median” value [6, 15] was 0.71 days, the “Viral Shedding … mean” value [6, 15] was 1.87 log10 TCID50/mL and the “Viral Shedding … AUC, median” value [6, 15] was 0.65 log10 TCID50 mL*Day. For the same molecule, the “Composite Clinical Symptom, Duration, median” value ([7]; 100 mg QD 5 days, N = 12) was 3.21 days, the “Composite Clinical Symptom, Peak, mean” value ([7]; 100 mg QD 5 days, N = 12) was 3.17 Grade and the “Influenza like Symptom, Duration, median” value ([7]; 100 mg QD 5 days, N = 12) was 3.21 days. The “Influenza like Symptom, Peak, mean” value ([7]; 100 mg QD 5 days, N = 12) was 2.75 Grade, the “Composite Clinical Symptom, AUC, median” value ([7]; 100 mg QD 5 days, N = 12) was 1.85 Grade*Day and the “Influenza like Symptom, AUC, median” value ([7]; 100 mg QD 5 days, N = 12) was 1.85 Grade*Day. For the same molecule, the “Composite Clinical Symptom, Duration, median” value ([7]; 400 mg QD 5 days, N = 12) was 3.34 days, the “Composite Clinical Symptom, Peak, mean” value ([7]; 400 mg QD 5 days, N = 12) was 2.83 Grade and the “Influenza like Symptom, Duration, median” value ([7]; 400 mg QD 5 days, N = 12) was 3.34 days. The “Influenza like Symptom, Peak, mean” value ([7]; 400 mg QD 5 days, N = 12) was 2.42 Grade, the “Composite Clinical Symptom, AUC, median” value ([7]; 400 mg QD 5 days, N = 12) was 4.70 Grade*Day and the “Influenza like Symptom, AUC, median” value ([7]; 400 mg QD 5 days, N = 12) was 3.80 Grade*Day. The “Composite Clinical Symptom, Duration, median” value [7, 16] was 2.69 days, the “Composite Clinical Symptom, Peak, mean” value [7, 16] was 3.71 Grade and the “Influenza like Symptom, Duration, median” value [7, 16] was 2.69 days. For the same molecule, the “Influenza like Symptom, Peak, mean” value [7, 16] was 3.21 Grade, the “Composite Clinical Symptom, AUC, median” value [7, 16] was 1.75 Grade*Day and the “Influenza like Symptom, AUC, median” value [7, 16] was 1.75 Grade*Day. The “Composite Clinical Symptom, Duration, median” value [7, 17] was 1.88 days, the “Composite Clinical Symptom, Peak, mean” value [7, 17] was 1.50 Grade and the “Influenza like Symptom, Duration, median” value [7, 17] was 1.88 days. For the same molecule, the “Influenza like Symptom, Peak, mean” value [7, 17] was 1.36 Grade, the “Composite Clinical Symptom, AUC, median” value [7, 17] was 1.95 Grade*Day and the “Influenza like Symptom, AUC, median” value [7, 17] was 1.75 Grade*Day. For the same molecule, the “Composite Clinical Symptom, Duration, median” value [7, 18] was 2.34 days, the “Composite Clinical Symptom, Peak, mean” value [7, 18] was 2.79 Grade and the “Influenza like Symptom, Duration, median” value [7, 18] was 2.34 days. The “Influenza like Symptom, Peak, mean” value [7, 18] was 2.42 Grade, the “Composite Clinical Symptom, AUC, median” value [7, 18] was 2.15 Grade*Day and the “Influenza like Symptom, AUC, median” value [7, 18] was 2.05 Grade*Day.
